The test system of this test is up-regulation of ICAM-1 (CD54) by IFNγ in A549 lung epithelial cells. The test can be described thus: A549 Epithelial Line Stimulated with IFNγ (ICAM-1 surface expression, FACS). The following applies: ICAM-1 expression by FACS, read-out: IC50, Example 43. In kind it is cell-based, human. The method in brief: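 ICAM-1 (CD54) flow cytometry on live-gated A549 cells, geometric mean versus dose giving EC50. Cells received IFNγ at 75 ng/mL for 24 h after a 1 h compound pre-treatment spanning 30 μM to 14 nM in medium with 5% FBS and 0.3% DMSO.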

The mark [1] stands for this setting: A549 cells stimulated with IFNγ.

pIC50: −log10 of the molar value. Read-outs that look alike come from different tables or passages of the source.

For `COCCn1ncc2cc(Nc3nc(Nc4cccc(S(N)(=O)=O)c4)ncc3F)ccc21` [VII-23, N2-(3-Aminosulfonylphenyl)-5-fluoro-N4-[1-(2-methoxyethyl)indazolin-5-yl]-2,4-pyrimidinediamine], the pIC50 (as a rule, −log10 of the IC50, conventionally taken in molar units) under setting [1] was 4.21.

For `NC1CCOc2ccc(Nc3nc(Nc4cccc(S(N)(=O)=O)c4)ncc3F)cc21` (stereo not shown) [VII-28, N2-(3-Aminosulfonylphenyl)-N4-(chroman-4-amine-6-yl)-5-fluoro-2,4-pyrimidinediamine], the pIC50 under setting [1] was 4.78.

On to `NC1CCOc2ccc(Nc3nc(Nc4ccc(S(N)(=O)=O)cc4)ncc3F)cc21` (stereo not shown) [VII-29, N2-(4-Aminosulfonylphenyl)-N4-(chroman-4-amine-6-yl)-5-fluoro-2,4-pyrimidinediamine], for which, under setting [1], the pIC50 is 4.52.

As for `N#CCN1C(=O)CSc2ccc(Nc3nc(Nc4cccc(S(N)(=O)=O)c4)ncc3F)cc21` [VII-36, N2-(3-Aminosulphonylphenyl)-5-fluoro-N4-(3-oxo-4-cyanomethyl-benzo[1,4]thiazin-6-yl)-2,4-pyrimidinediamine], the pIC50 under setting [1] is 4.08.

For the compound `Cc1ccc(Nc2ncc(F)c(Nc3ccc4c(c3)NC(=O)CS4)n2)cc1S(N)(=O)=O` [VII-45, N2-(3-Aminosulphonyl-4-methyl-phenyl)-5-fluoro-N4-(3-oxo-4H-benzo[1,4]thiazin-6-yl)-2,4-pyrimidinediamine], the negative logarithm of the IC50 (pIC50) under setting [1] is 5.39.

Regarding `CN1C(=O)CSc2ccc(Nc3nc(Nc4cccc(S(=O)(=O)N5CCCCC5)c4)ncc3F)cc21` [VII-50, 5-Fluoro-N4-(4-methyl-3-oxo-benz[1,4]thiazin-6-yl)-N2-(3-pipendinosulfonylphenyl)-2,4-pyrimidinediamine], the pIC50 under setting [1] was 5.35.

Take `CS(=O)(=O)N1CCc2cc(Nc3nc(Nc4cccc(S(N)(=O)=O)c4)ncc3F)ccc21` [VII-60, N2-(3-Aminosulfonylphenyl)-5-fluoro-N4-[4-(1-methylsulfonyl)indolin-5-yl]-2,4-pyrimidinediamine]: the pIC50 under setting [1] was 5.58.

With “N2-(3-Aminosulfonyl-4-methylphenyl)-5-fluoro-N4-[4-(2-pyridinyl)-3-fluoromethyleneoxyphenyl]-2,4-pyrimidinediamine [Compound I-172]”, under “A549 epithelial line stimulated with IFNγ”, the pIC50 is 4.41.

On to “N2-[3-Aminosulfonyl-4-(4-methylpiperazine-1-yl)phenyl]-N4-(3-cyanomethylene-1H-indol-6-yl)-5-fluoro-2,4-pyrimidinediamine [IX-17]”, for which the negative logarithm of the IC50 (pIC50) under setting [1] is 4.66.

In the case of “N2-[3-Aminosulfonyl-4-(4-methylpiperazine-1-yl)phenyl]-N4-(3-cyanomethylene-1H-indol-7-yl)-5-fluoro-2,4-pyrimidinediamine [IX-18]”, the negative-log IC50 (pIC50) under setting [1] is 4.26.

Source of the values: patent US11827628B2, “Compositions and methods for inhibition of the JAK pathway” (Rigel Pharmaceuticals, Inc., priority 2005, dated 2023).
